US10695341B2, “Compositions and methods for treating endometriosis” (UNIVERSITY OF SOUTH FLORIDA, priority 2014, dated 2020)

How the values were obtained:
[1] = tested on: uterine horns and endometriotic lesions; test: H&E histopathology of uterine horns and lesions from treated mice; assay type: in vivo, C57BL/6 mice
Method: A randomly selected subset of the collected lesions and uterine horns were processed for staining with hematoxylin and eosin (H&E) (pathologically confirmed endometriotic lesions from PBS and HCQ-treated mice, n=15 each; uterine horns derived from PBS-treated mice, n=10; and uterine horns derived from HCQ-treated mice, n=10).
Five-week-old C57BL/6 female mice were purchased from Jackson laboratories. All animals were maintained under standard 12 h photoperiod; food and water were available ad libitum throughout the study. All experimental procedures and animal care were approved by the Animal Care and Use Committee (IACUC) of the University of South Florida (R IS00000101), in accordance with the principles described in the Guide for the Care and Use of Laboratory Animals of the National Institutes of Health. All surgical procedures were performed under aseptic conditions using anesthesia. The mouse model of endometriosis was performed as previously described. […] Lesions were measured using a caliper. Volume of the lesions was calculated according to the formula: 4/3πr^2R.
Collected samples were immediately preserved in 10% neutral buffered formalin at the animal facility. […] Lesions were analyzed from independent blocks. […]

[2] = tested on: uterine horns and ovaries; test: Murine tissue microarray H&E and immunohistochemistry (uterine horns, ovaries); assay type: in vivo, mouse
Text: To determine whether HCQ treatment alters the histopathology (tissue organization) of the recipient's uterine horns and other tissues, a murine tissue microarray (TMA) comprised of 113 cores and performed H&E as well as immunohistochemical staining was developed. The TMA contained uterine horns and ovaries from 10 PBS- and 10 HCQ-treated mice, as well as a mammary gland, a kidney, a lymph node and a small intestine from a PBS-treated mouse for use as antibody controls. […] Estrogen receptor α (ERα) was primarily localized to the epithelial cell layer of the endometrial glands, while progesterone receptor (PR) appeared to be evenly distributed between the stromal and epithelial cell compartments. However, the PR staining was comparatively much weaker to that for ERα. […] LC3B expression appeared more intense in HCQ-treated mice relative to PBS-treated mice in both the stromal and epithelial compartments (FIGS. 19A-19X). […] Collected samples were immediately preserved in 10% neutral buffered formalin at the animal facility. Samples were embedded in paraffin, sectioned, and transferred to slides for hematoxylin/eosin and immunohistochemical staining. A pathologist reviewed each case and delimited the region of interest, containing epithelial and stromal cells, for each specimen. A mouse tissue microarray was prepared at the Tissue Core Facility at the Moffitt Cancer Center. The mouse tissue microarray contained a total of 113 core samples, which included 10 uterine horns and 10 ovaries from both PBS and HCQ treated mice. As control specimens for the utilized antibodies, the TMA included mouse mammary tissue, […], small intestine, and lymph nodes from a PBS treated mouse. Lesions were analyzed from independent blocks. Slides were stained using a Leica Bond RX automated system (Leica Biosytems, Buffalo Grove, Ill.) following manufacturers instructions with proprietary reagents. Slides were deparaffinized on an automated system with Dewax Solution (Leica Biosystems). The antigen retrieval method used for Progesterone Receptor (PR) was enzymatic with Enzyme Solution 1 at 15 min (Leica), for vimentin and Estrogen Receptor (ER) was heat induced with Epitope Retrieval Solution 1 at 20 min (Leica), for cytokeratin 8 (CK-8) was heat induced with Epitope Retrieval Solution at 10 min (Leica), and for LC3B was heat-induced with Epitope Retrieval Solution 1 at 10 min (Leica Biosystems). All antibodies were diluted in Dako antibody diluent (Carpenteria, Calif.): PR (# ab131486, 1:500, Abcam, Cambridge, Mass.), vimentin (#5741 (D21H3), 1:100, Cell Signaling, Danvers, Mass.), ERα (# ab32063 ([…]), 1:200, Abcam, Cambridge, Mass.), Cytokeratin-8 (# ab53280 (E[…]), 1:200, Abcam, Cambridge, Mass.), and LC3B (# ab51520, 1:1,500, Abcam, Cambridge, Mass.) and incubated for 30 min. The Leica Bond Polymer Refine Detection System was used with a polymer incubation for 8 min. Hematoxylin was used as counterstain and slides were dehydrated and covered with a coverslip, following standard histological protocol.

[3] = tested on: LC3B-II; test: Western blot for LC3B, T-HESC cells, HCQ; assay type: cell-based, human; details: 25 μM HCQ, 18 hours

- uterine horns with irregular epithelium pattern ([1]; uterine horns from HCQ-treated mice, 60 mg/kg): 5 out of 10
- luminal epithelium of the uterine horn endometrium (H&E, TMA) ([2]; HCQ-treated mice): irregular pattern
- intensity or localization of IHC markers in ovaries ([2]; HCQ-treated relative to PBS-treated mice): no marked differences
SMILES: CCN(CCO)CCCC(C)Nc1ccnc2cc(Cl)ccc12 (centres unmarked) [HCQ, hydroxychloroquine]
- histology of ectopic growths (glandular components) ([1]; vs PBS, p=0.03 Fisher's exact test): did not histologically resemble endometriotic lesions
- ERα and PR staining pattern or intensity in uterine horns ([2]; PBS vs HCQ-treated mice): no differences
- vimentin and CK8 localization in uterine horns ([2]; stromal and epithelial compartments, independently of HCQ treatment): appropriately localized
- LC3B expression in uterine horns (IHC) ([2]; stromal and epithelial compartments, relative to PBS): more intense
- LC3B-II protein in T-HESC cells [3]: increase
